Literature values, collected in patent publication US6468993B1, “Method for reducing development of osteoporosis” (BioNumerik Pharmaceuticals, Inc., priority 1999, dated 2002).

Key:
dogs = settings: intravenously, doses higher than 3750 mg/kg
mice = settings: intravenously, doses higher than 3750 mg/kg
humans = settings: doses exceeding 40 g/m^2

Row | SMILES | accepted oral LD50 [mg/kg] | adverse effects after administration (dogs) | adverse effects after administration (mice) | adverse effects after administration (humans)
1 | [Cl-].[Na+] [common table salt] | 3750 | – | – | –
2 | O=S(=O)([O-])CCSSCCS(=O)(=O)[O-].[Na+].[Na+] [dimesna, disodium 2,2′-dithiobis ethane sulfonate] | – | no adverse effects | no adverse effects | no adverse effects
